# The supplement of paper PMC11061612
# Key:
# Capivasertib = compound: C1CN(CCC1(C(=O)N[C@@H](CCO)C2=CC=C(C=C2)Cl)N)C3=NC=NC4=C3C=CN4 [Capivasertib]; details: max 10 µM
# In short: (§1)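 Plates with 1536 wells received cancer cell lines in 7.5 μl of DMEM/F12 or RPMI containing 10% FBS. After 24 hours at 37°C and 5% CO2, cells were dosed for 72 hours with final DMSO typically 0.2%, and viability was read by CellTiter-Glo 2.0 luminescence scaled between blank-well and DMSO-well means. The single-agent IC50 was taken from a logistic fit of the dose responses made with a non-linear mixed effects model, that logistic curve having two parameters.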
# AZD1775 = compound: C=CCn1c(=O)c2cnc(Nc3ccc(N4CCN(C)CC4)cc3)nc2n1-c1cccc(C(C)(C)O)n1 [AZD1775]; details: max 3 µM
# In short: as §1
# Trametinib = compound: CC(=O)Nc1cccc(-n2c(=O)n(C3CC3)c(=O)c3c(Nc4ccc(I)cc4F)n(C)c(=O)c(C)c32)c1 [Trametinib]; details: max 1 µM
# In short: as §1
# Palbociclib = compound: CC(=O)c1c(C)c2cnc(Nc3ccc(N4CCNCC4)cn3)nc2n(C2CCCC2)c1=O [Palbociclib]; details: max 10 µM
# In short: as §1
# AZD1390 = compound: CC(C)n1c(=O)n(C)c2cnc3cc(F)c(-c4ccc(OCCCN5CCCCC5)nc4)cc3c21 [AZD1390]; details: max 0.3 µM
# In short: as §1
# Venetoclax = compound: CC1(C)CCC(CN2CCN(c3ccc(C(=O)NS(=O)(=O)c4ccc(NCC5CCOCC5)c([N+](=O)[O-])c4)c(Oc4cnc5[nH]ccc5c4)c3)CC2)=C(c2ccc(Cl)cc2)C1 [Venetoclax]; details: max 1 µM
# In short: as §1
# Dasatinib = compound: CC1=C(C(=CC=C1)Cl)NC(=O)C2=CN=C(S2)NC3=CC(=NC(=N3)C)N4CCN(CC4)CCO [Dasatinib]; details: max 2 µM
# In short: as §1
# SG3199 = compound: CC1=CN2[C@@H](C1)C=NC3=CC(=C(C=C3C2=O)OC)OCCCCCOC4=C(C=C5C(=C4)N=C[C@@H]6CC(=CN6C5=O)C)OC [SG3199]; details: max 0.001 µM
# In short: as §1
# AZD2811 = compound: CCN(CCO)CCCOc1ccc2c(Nc3cc(CC(=O)Nc4cccc(F)c4)[nH]n3)ncnc2c1 [AZD2811]; details: max 1 µM
# In short: as §1
# SN-38 = compound: CCc1c2c(nc3ccc(O)cc13)-c1cc3c(c(=O)n1C2)COC(=O)[C@]3(O)CC [SN-38]; details: max 0.3 µM
# In short: as §1
# AZD0156 = compound: CN(C)CCCOc1ccc(-c2ccc3ncc4c(c3c2)n(C2CCOCC2)c(=O)n4C)cn1 [AZD0156]; details: max 3 µM
# In short: as §1
# AZD4320 = compound: CN(CC[C@H](CSC1=CC=CC=C1)NC2=C(C=C(C=C2)S(=O)(=O)NC(=O)C3=CC=C(C=C3)N4CCC(CC4)[C@H](C5=CC=CC=C5C6=CC=C(C=C6)Cl)O)S(=O)(=O)C(F)(F)F)CCO [AZD4320]; details: max 1 µM
# In short: as §1
# Alisertib = compound: COc1cc(Nc2ncc3c(n2)-c2ccc(Cl)cc2C(c2c(F)cccc2OC)=NC3)ccc1C(=O)O [Alisertib]; details: max 10 µM
# In short: as §1
# Gefitinib = compound: COc1cc2ncnc(Nc3ccc(F)c(Cl)c3)c2cc1OCCCN1CCOCC1 [Gefitinib]; details: max 10 µM
# In short: as §1
# Prexasertib = compound: COc1cccc(OCCCN)c1-c1cc(Nc2cnc(C#N)cn2)n[nH]1 [Prexasertib]; details: max 1 µM
# In short: as §1
# Doxorubicin = compound: COc1cccc2c1C(=O)c1c(O)c3c(c(O)c1C2=O)C[C@@](O)(C(=O)CO)C[C@@H]3O[C@H]1C[C@H](N)[C@H](O)[C@H](C)O1 [Doxorubicin]; details: max 1 µM
# In short: as §1
# AZD5153 = compound: COc1nnc2ccc(N3CCC(c4ccc(OCCN5CCN(C)C(=O)[C@H]5C)cc4)CC3)nn12 [AZD5153]; details: max 1 µM
# In short: as §1
# Lapatinib = compound: CS(=O)(=O)CCNCc1ccc(-c2ccc3ncnc(Nc4ccc(OCc5cccc(F)c5)c(Cl)c4)c3c2)o1 [Lapatinib]; details: max 10 µM
# In short: as §1
# AZD8186 = compound: C[C@@H](Nc1cc(F)cc(F)c1)c1cc(C(=O)N(C)C)cc2c(=O)cc(N3CCOCC3)oc12 [AZD8186]; details: max 3 µM
# In short: as §1
# Crizotinib = compound: C[C@@H](Oc1cc(-c2cnn(C3CCNCC3)c2)cnc1N)c1c(Cl)ccc(F)c1Cl [Crizotinib]; details: max 10 µM
# In short: as §1
# Savolitinib = compound: C[C@@H](c1ccc2nccn2c1)n1nnc2ncc(-c3cnn(C)c3)nc21 [Savolitinib]; details: max 1 µM
# In short: as §1
# AZD6738 = compound: C[C@@H]1COCCN1C2=NC(=NC(=C2)C3(CC3)[S@](=N)(=O)C)C4=C5C=CNC5=NC=C4 [AZD6738]; details: max 10 µM
# In short: as §1
# AZD5991 = compound: Cc1c2c(nn1C)CSCc1cc(n(C)n1)CSc1cc(c3ccccc3c1)OCCCc1c(C(=O)O)n(C)c3c-2c(Cl)ccc13 [AZD5991]; details: max 1 µM
# In short: as §1
# AZD7648 = compound: Cc1cc2ncnn2cc1Nc1ncc2c(n1)n(C1CCOCC1)c(=O)n2C [AZD7648]; details: max 10 µM
# In short: as §1
# Taselisib = compound: Cc1nc(-c2cn3c(n2)-c2ccc(-c4cnn(C(C)(C)C(N)=O)c4)cc2OCC3)n(C(C)C)n1 [Taselisib]; details: max 10 µM
# In short: as §1
# Selumetinib = compound: Cn1cnc2c(F)c(Nc3ccc(Br)cc3Cl)c(C(=O)NOCCO)cc21 [Selumetinib]; details: max 10 µM
# In short: as §1
# Olaparib = compound: O=C(c1cc(Cc2n[nH]c(=O)c3ccccc23)ccc1F)N1CCN(C(=O)C2CC2)CC1 [Olaparib]; details: max 10 µM
# In short: as §1
Cell Line,"IC50, cell viability 72 h (Capivasertib) [µM]","IC50, cell viability 72 h (AZD1775) [nM]","IC50, cell viability 72 h (Trametinib) [nM]","IC50, cell viability 72 h (Palbociclib) [µM]","IC50, cell viability 72 h (AZD1390) [nM]","IC50, cell viability 72 h (Venetoclax) [nM]","IC50, cell viability 72 h (Dasatinib) [nM]","IC50, cell viability 72 h (SG3199) [nM]","IC50, cell viability 72 h (AZD2811) [nM]","IC50, cell viability 72 h (SN-38) [nM]","IC50, cell viability 72 h (AZD0156) [nM]","IC50, cell viability 72 h (AZD4320) [nM]","IC50, cell viability 72 h (Alisertib) [µM]","IC50, cell viability 72 h (Gefitinib) [µM]","IC50, cell viability 72 h (Prexasertib) [nM]","IC50, cell viability 72 h (Doxorubicin) [nM]","IC50, cell viability 72 h (AZD5153) [nM]","IC50, cell viability 72 h (Lapatinib) [µM]","IC50, cell viability 72 h (AZD8186) [nM]","IC50, cell viability 72 h (Crizotinib) [µM]","IC50, cell viability 72 h (Savolitinib) [nM]","IC50, cell viability 72 h (AZD6738) [µM]","IC50, cell viability 72 h (AZD5991) [nM]","IC50, cell viability 72 h (AZD7648) [µM]","IC50, cell viability 72 h (Taselisib) [µM]","IC50, cell viability 72 h (Selumetinib) [µM]","IC50, cell viability 72 h (Olaparib) [µM]"
SAT (Head and Neck Carcinoma),> 10,2690,77.2,> 10,> 300,> 1000,204,> 1,> 1000,> 300,> 3000,> 1000,2.92,2.61,826,> 1000,155,2.02,> 3000,> 10,> 1000,> 10,> 1000,> 10,0.16,4.69,> 10
SUP-M2 (T-Cell Non-Hodgkin's Lymphoma),> 10,316,> 1000,6.52,> 300,> 1000,> 2000,> 1,22.6,1.56,> 3000,805,0.0577,> 10,16.5,54.7,30.4,6.55,> 3000,0.475,> 1000,1.01,117,> 10,> 10,> 10,5.4
MM1S (Plasma Cell Myeloma),0.545,720,> 1000,> 10,> 300,> 1000,> 2000,> 1,> 1000,10.1,1690,153,> 10,> 10,30.1,459,347,> 10,> 3000,6.08,> 1000,9.52,325,> 10,0.207,> 10,> 10
SiHa (Cervical Carcinoma),> 10,> 3000,> 1000,> 10,> 300,> 1000,> 2000,> 1,> 1000,> 300,> 3000,> 1000,> 10,> 10,> 1000,> 1000,444,> 10,> 3000,> 10,> 1000,> 10,> 1000,> 10,> 10,> 10,> 10
AM-38 (Glioblastoma),> 10,2610,71.7,> 10,> 300,> 1000,> 2000,> 1,> 1000,22.7,> 3000,> 1000,> 10,> 10,126,694,> 1000,> 10,> 3000,> 10,> 1000,4.8,> 1000,> 10,> 10,3.75,> 10
HT-1080 (Other Solid Carcinomas),> 10,> 3000,> 1000,> 10,> 300,> 1000,> 2000,> 1,> 1000,> 300,> 3000,721,> 10,> 10,536,> 1000,> 1000,> 10,> 3000,> 10,> 1000,> 10,> 1000,> 10,> 10,> 10,> 10
OVCAR-3 (Ovarian Carcinoma),> 10,1600,> 1000,> 10,> 300,> 1000,> 2000,> 1,> 1000,231,> 3000,> 1000,> 10,> 10,198,> 1000,475,> 10,> 3000,> 10,> 1000,> 10,> 1000,> 10,5.63,> 10,> 10
NB1 (Neuroblastoma),5.18,1360,> 1000,> 10,> 300,> 1000,> 2000,> 1,186,24,> 3000,> 1000,> 10,> 10,184,> 1000,> 1000,> 10,> 3000,0.628,> 1000,4.73,> 1000,> 10,1.2,> 10,> 10
